We go through one compound from patent publication US20080280987A1, “Methods of inhibiting angiogenesis and treating angiogenesis-associated diseases” (priority 2006, published 2008).

In data set [1] the test system is human endothelial cells co-cultured with human fibroblast cells. Kind of data set: Microvessel/tubule formation and disruption assay, TCS CellWorks AngioKit model. The class given is cell-based. To be noted: treated on day 11, stained on day 12. As for the experimental part: To study the effect of Nab-5404 and Nab-5676 on angiogenesis, the compounds were evaluated in a microvessel formation assay using a TCS CellWorks AngioKit model (TCS CellWorks Ltd., Botolph Claydon, Buckingham UK). The AngioKit model uses human endothelial cells co-cultured with other human cells. The endothelial cells initially form small islands within the culture matrix, then begin to proliferate and then enter a migratory phase during which they move through the matrix to form threadlike tubule structures. These gradually join up to form a network of tubules which closely resemble a capillary bed (at day 9-11). The tubules stain positive for von Willebrand's factor, CD31 (PECAM-1) and ICAM-2.
In addition to Nab-5404 and Nab-5676, a known vascular targeting agent, combretastatin 4-phosphate (CA4P), was tested for in vitro anti-angiogenic activity. The TCS CellWorks AngioKit model was used according to the manufacturer's instructions. As outlined above, human endothelial cells were co-cultured with human fibroblast cells in a 24 well plate and exposed to Nab-5404, Nab-5676 or CA4P across a range of concentrations (0.01 to 100 μg/ml). […] The length of the tubules was analyzed using ImagePro software and the IC50 of each compound was calculated using Prism software. […]

Data set [2] has as its system established HT-29 colon cell tumors. Kind of data set: Anti-tumor activity in HT-29 xenograft mouse model. Conditions: 100 mg/kg every day for 4 doses, tumors 900 mm^3. The class given is in vivo. As for the experimental part:
The anti-tumor activity of Nab-5404 and Nab-5676 was evaluated in a xenograft mouse model. The compounds were tested against established HT-29 colon cell tumors in vivo in two cycles, the first a low-dosage schedule followed by a second high-dosage schedule. Irinotecan was used as a positive control in the study. Mice (n=10) were separated into 8 groups with Nab-5404 and Nab-5676 mice receiving the compounds by intravenous injection. The first cycle consisted of administration of Nab-5404 or Nab-5676 every 3 days for 4 doses for days 0-14 followed by the second cycle which consisted of administration of Nab-5404 or Nab-5676 every 3 days for 4 doses for days 15-30. Irinotecan was administered by intravenous injection at a dose of 60 mg/kg every 3 days for 4 doses. The individual groups are shown in Table 2, wherein 1st cycle refers to days 0-14 and 2nd cycle refers to days 15-30.
Combretastatin 4-phosphate (CA4P) was also administered to HT-29 tumor-bearing mice in a separate experiment. The mice (n=10) were treated once tumors reached 900 mm^3 with either vehicle or CA4P at the reported MTD of 100 mg/kg on a schedule of every day for 4 doses.

The test system is the same in data set [3]. To be noted: mice, every day for 4 doses; cited from earlier work.

SMILES strings stand for the structures. ≈ marks a conversion by molar mass, not a printed value.

For the compound `COc1ccc(/C=C\c2cc(OC)c(OC)c(OC)c2)cc1OP(=O)(O)O` [CA4P, combretastatin 4-phosphate], the “IC50 disrupting established tubules (tubule length)” value in data set [1] turned out to be 3 ng/mL (≈ 7.57 nM). The “Activity in HT-29 tumor model” value in data set [2] is “inactive”. Further, in data set [3], the “Reported MTD” value is reported as 100 mg/kg.
